The values that follow come from patent US20230009608A1, “GRK2 INHIBITORS AND USES THEREOF” (Cygnal Therapeutics, Inc., priority 2020, published 2023).

Assay [1] deals with PAXF1657 cell line stably overexpressing GRK2. In words: 7-day proliferation assay, PAXF1657 stably overexpressing GRK2 (Example 9). Format: cell-based. The note with it: for GI50: 168 h, 7-day compound treatment, CellTiter-Glo; for Ratio GRK2 overexpressing cells/Empty vector cells: GI50 in GRK2 overexpressing PAXF1657 over GI50 in empty vector PAXF1657. On the procedure: In order to identify compounds specific for GRK2, we generated two isogenic cell line pairs of the pancreatic cancer cell line PAXF1657, a pair of cells stably overexpressing GRK2 cDNA or the control empty vector and a cell line pair of PAXF1657 GRK2 knockout clonal cells versus non-targeting control clonal cells.
Proliferation Assay: Cellular anti-proliferative activity of compounds was assessed by using the pancreatic cancer cell line, PAXF1657, stably overexpressing GRK2 cDNA or the control empty vector, as well as the parental urinary bladder cancer cell line, 5637. In addition, we also took advantage of GRK2 knockout cell lines that were generated via CRISPR. Cell lines were seeded into tissue culture treated, white-walled, 96-well plates at a density of 500 cells/well in RPMI1640 media supplemented with 10% H.I. FBS and penicillin/streptomycin. Plates were incubated overnight at 37° C., 5% CO2 to allow cells to adhere to the wells. GRK2 inhibitors were added to the cells using a 10-point dilution series with a final concentration ranging from 30 μM-0.0002 μM in 0.3% DMSO. At the time of compound addition, a set of plates, that were not treated with compounds, were collected and cell viability was measured using CellTiter-Glo (Promega). CellTiter-Glo reagent was added to the designed plates and luminescence was measuring using a Biotek Synergy plate reader. The compound treated cells were incubated for 3 days at 37° C., 5% CO2. The media was then aspirated from each well and replaced with fresh media containing GRK2 inhibitors. The compound treated cells were then incubated for an additional 4 days at 37° C., 5% CO2. Cell viability was assessed and at end of the 7-day compound treatment by CellTiterGlo.

In assay [2] the test system is PAXF1657 control empty vector cell line. Briefly: 7-day proliferation assay, PAXF1657 control empty vector cell line (Example 9). In kind it is cell-based. The note with it: 168 h; for GI50: 7-day compound treatment, CellTiter-Glo; for IC50: Cell Line: PAXF1657 empty vector (EV) cell line, 7-day, read-out: C: 7-day proliferation assay: IC50 GeoMean. A digest of the protocol:
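500 cells/well, RPMI1640 + 10% H.I. FBS, adhered overnight at 37° C. Compound 10-pt dilution, 30 μM-0.0002 μM final, 0.3% DMSO. 3 d, media + compound replaced, further 4 d. Viability by CellTiter-Glo; untreated plates read at time of dosing.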
For orientation: Cellular ATP, detected with luciferase, serves as a proxy for viable cell number.

Assay [3] deals with T1, GRK2 (Homo sapiens, UniProt P25098).
T1 construct: purchased SignalChem A14-10G
T1 sequence (P25098 1-689): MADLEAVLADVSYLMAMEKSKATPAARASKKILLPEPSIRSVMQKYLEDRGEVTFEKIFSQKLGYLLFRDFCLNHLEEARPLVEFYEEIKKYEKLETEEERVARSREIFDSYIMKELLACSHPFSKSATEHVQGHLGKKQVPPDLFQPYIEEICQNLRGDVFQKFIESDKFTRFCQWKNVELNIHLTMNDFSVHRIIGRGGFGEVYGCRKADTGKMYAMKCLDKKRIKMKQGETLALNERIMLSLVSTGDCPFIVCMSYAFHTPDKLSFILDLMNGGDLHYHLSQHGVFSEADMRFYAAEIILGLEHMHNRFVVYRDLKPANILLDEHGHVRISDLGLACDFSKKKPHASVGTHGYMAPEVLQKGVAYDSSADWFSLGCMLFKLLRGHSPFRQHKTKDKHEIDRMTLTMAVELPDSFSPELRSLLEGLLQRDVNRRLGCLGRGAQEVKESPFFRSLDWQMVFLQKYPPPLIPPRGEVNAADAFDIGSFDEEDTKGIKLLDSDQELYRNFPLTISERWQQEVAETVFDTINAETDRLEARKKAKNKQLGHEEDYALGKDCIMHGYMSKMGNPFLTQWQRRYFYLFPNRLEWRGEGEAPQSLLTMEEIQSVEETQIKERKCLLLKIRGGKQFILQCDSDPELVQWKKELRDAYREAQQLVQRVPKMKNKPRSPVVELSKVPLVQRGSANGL
Briefly: ADPGlo GRK2 Inhibition Assay (Example 8). In kind it is biochemical. In outline:
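GRK2 (15 nM 2× enzyme solution) was preincubated 15 min with compound, then reacted 180 min at room temperature with 2× mix of 20 μM ATP plus GRKtide in HEPES pH 7.5, MgCl2, Tween-20, DTT. ADP was detected by ADP-Glo luminescence. Percent inhibition was normalised to enzyme and no-enzyme controls, with dose-response curves from threefold dilutions starting at 100 μM.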
A general note: In ADP-Glo the light output rises with the ADP produced.

For assay [4], the target named is T1, GRK2. Briefly: GRK2 Inhibition Assay (TR-FRET, Example 7). Format: biochemical. As to conditions: read-out: B: Enzymatic GRK2: IC50 (nM) (Example 7). In outline:
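GRK2 at 1 nM preincubated 30 min with compound, then reacted 90 min at room temperature with 7 μM ATP and 50 nM ULight-TopoIIα in HEPES/MgCl2/DTT buffer. Phosphorylation detected by TR-FRET after Eu anti-TopoIIα and EDTA addition, 60 min.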

The mark [5] stands for this setting: 7.5 nM GRK2, 10 μM ATP, ADP-Glo, read-out: GRK2 IC50 (nM) (Example 8).
Where [6] appears, read: Enzyme Assay B, TR-FRET (Example 7).
The mark [7] stands for this setting: Enzyme Assay A, ADPGlo (Example 8), read-out: A: Enzymatic GRK2: IC50 (nM) (Example 8).
Where [8] appears, read: ADPGlo GRK2 enzyme assay, read-out: A: Enzymatic GRK2: IC50 (nM) (Example 8).

A value given as a limit tells only on which side of the number the result lay.

The term GI50 denotes the concentration that inhibits growth by half. Turning to `Cn1c(CNc2cccc(C(=O)NCc3ccccc3C(F)(F)F)c2)nnc1-c1ccncc1` [115h, reference compound], the concentration for 50% growth inhibition (GI50) in assay [1] is 10 µM; in assay [2], 8.91 µM. Also, in assay [1], the “Ratio GRK2 overexpressing cells/Empty vector cells” value was 1.12.
For `O=C(NCc1ccccc1C(F)(F)F)c1cccc(NCc2nnc3n2CCCOc2ccccc2-3)c1` [133a, reference compound], in assay [1], the GI50 was 0.24 µM and the “Ratio GRK2 overexpressing cells/Empty vector cells” value turned out to be 1.71. In assay [2], the GI50 was 0.14 µM.
Regarding `CCCn1c(CNc2cccc(C(=O)NCc3ccccc3C(F)(F)F)c2)nnc1-c1ccncn1` [139c, reference compound], in assay [1], the GI50 was 1.47 µM and the “Ratio GRK2 overexpressing cells/Empty vector cells” value amounted to 1.75. In assay [2], the GI50 was found to be 0.84 µM.
Consider `Cn1c(CNc2cccc(C(=O)NCc3cc(F)cc(F)c3)c2)nnc1-c1ccncn1` [compound 10], for which the GI50 in assay [1] was found to be 13.7 µM; in assay [2], 1.58 µM. The “Ratio GRK2 overexpressing cells/Empty vector cells” value in assay [1] turned out to be 8.65. Further, the IC50 at GRK2 [3] (setting [5]) is 15 nM.
On the same counts, the results for `CCc1cnccc1CNC(=O)c1cccc(NCc2nnc(-c3ccncn3)n2C)c1` [compound 12] are 8.01 µM, 0.97 µM, 8.24 and 51 nM.
Turning to `Cc1ccnc(C(C)NC(=O)c2cccc(NCc3nnc(-c4ccncn4)n3C)c2)c1` (stereo not shown) [compound 25], the GI50 was 25.8 µM in assay [1] and > 30 µM in assay [2].
Turning to `COc1cccc(C(CO)NC(=O)c2cccc(NCc3nnc(-c4ccncn4)n3C)c2)c1` (stereo not shown) [drawing 569], the figures for the IC50 (in assay [2]; on GRK2 [4] (setting [6]); at GRK2 [3] (setting [7])) were > 30 µM, 13 nM and 5.4 nM, respectively.
On the same counts, the results for `Cn1c(CNc2cccc(C(=O)NCc3cnccc3Cl)c2)nnc1-c1ccncn1` [drawing 570] are 1.19 µM, 17 nM and 4.3 nM.
On to `Cn1c(CNc2cccc(C(=O)NCc3ccc4c(c3)CCN4)c2)nnc1-c1ccncn1` [drawing 571], for which the IC50 is > 30 µM in assay [2], 15 nM on GRK2 [4] (setting [6]) and 9.4 nM at GRK2 [3] (setting [7]).
On to `Cn1c(CNc2cccc(C(=O)NC3CCOc4cccnc43)c2)nnc1-c1ccncn1` (stereo not shown) [drawing 572], for which the IC50 stood at 0.285 µM in assay [2], 13 nM on GRK2 [4] (setting [6]) and 9.6 nM on GRK2 [3] (setting [7]).
As for `Cc1ccc(C(CO)NC(=O)c2cccc(NCc3nnc(-c4ccncn4)n3C)c2)cc1` (stereo not shown) [drawing 575], the IC50 in assay [2] is > 30 µM; at GRK2 [4] (setting [6]), 8.1 nM; at GRK2 [3] (setting [7]), 3.3 nM.
On the same counts, the results for `CCOc1ccc(C(CO)NC(=O)c2cccc(NCc3nnc(-c4ccncn4)n3C)c2)cn1` (stereo not shown) [drawing 577] are > 30 µM, 12 nM and 1.8 nM.
On to `Cn1c(CNc2cccc(C(=O)NCc3ccc(-n4ccnn4)cc3)c2)nnc1-c1ccncn1` [drawing 579], for which the figures for the IC50 (in assay [2]; on GRK2 [4] (setting [6]); at GRK2 [3] (setting [7])) were > 30 µM, 18 nM and 9.5 nM, respectively.
Consider `Cn1cccc1CNC(=O)c1cccc(NCc2nnc(-c3ccncn3)n2C)c1` [drawing 585], for which the figures for the IC50 (in assay [2]; on GRK2 [4] (setting [6]); on GRK2 [3] (setting [7])) were 0.551 µM, 6.7 nM and 9.5 nM, respectively.
With `Cc1cc2c(cc1CNC(=O)c1cccc(NCc3nnc(-c4ccncn4)n3C)c1)OCCO2` [drawing 588], the IC50 in assay [2] was 0.996 µM; at GRK2 [4] (setting [6]) it was 3.3 nM; at GRK2 [3] (setting [7]), 0.5 nM.
As to `Cc1cccc(C(CO)NC(=O)c2cccc(NCc3nnc(-c4ccncn4)n3C)c2)c1` (stereo not shown) [drawing 589], the IC50 stood at 0.407 µM in assay [2], 8.6 nM on GRK2 [4] (setting [6]) and 1.1 nM at GRK2 [3] (setting [7]).
For `Cn1c(CNc2cccc(C(=O)NCc3cccc(C#N)c3)c2)nnc1-c1ccncn1` [drawing 591], the IC50 in assay [2] was > 30 µM; on GRK2 [4] (setting [6]), 12 nM; at GRK2 [3] (setting [7]), 2.7 nM.
For the compound `Cc1ccc2ncc(CNC(=O)c3cccc(NCc4nnc(-c5ccncn5)n4C)c3)n2c1` [drawing 596], the figures for the IC50 (in assay [2]; at GRK2 [4] (setting [6]); at GRK2 [3] (setting [7])) were > 30 µM, 7.2 nM and 2.8 nM, respectively.
In the case of `CC(NC(=O)c1cccc(NCc2nnc(-c3ccncn3)n2C)c1)c1c[nH]cn1` (stereo not shown) [drawing 599], the IC50 is > 30 µM in assay [2], 60 nM at GRK2 [4] (setting [6]) and 5.7 nM on GRK2 [3] (setting [7]).
With `Cn1c(CNc2cccc(C(=O)NCc3ccc(-n4nccn4)cc3)c2)nnc1-c1ccncn1` [drawing 601], the IC50 in assay [2] was > 30 µM; on GRK2 [4] (setting [6]), 20 nM; at GRK2 [3] (setting [7]) it was 2.1 nM.
As for `Cn1c(CNc2cccc(C(=O)NCc3ccc(C#N)cc3)c2)nnc1-c1ccncn1` [drawing 603], the IC50 in assay [2] was > 30 µM; at GRK2 [4] (setting [6]), 20 nM; at GRK2 [3] (setting [7]), 6.3 nM.
On the same counts, the results for `Cn1nccc1CNC(=O)c1cccc(NCc2nnc(-c3ccncn3)n2C)c1` [drawing 608] are > 30 µM, 29 nM and 5.7 nM.
Consider `Cc1nc(CNC(=O)c2cccc(NCc3nnc(-c4ccncn4)n3C)c2)cs1` [drawing 610], for which the figures for the IC50 (in assay [2]; on GRK2 [4] (setting [6]); on GRK2 [3] (setting [7])) were > 30 µM, 13 nM and 9.8 nM, respectively.
On the same counts, the results for `Cn1c(CNc2cccc(C(=O)NCc3ccc4nccn4c3)c2)nnc1-c1ccncn1` [drawing 611] are 2.93 µM, 26 nM and 1.7 nM.
Regarding `Cn1c(CNc2cccc(C(=O)NCc3cnn(-c4ccccc4)n3)c2)nnc1-c1ccncn1` [drawing 616], the results for the IC50 (in assay [2]; on GRK2 [4] (setting [6]); on GRK2 [3] (setting [7])) were > 30 µM, 18 nM and 6.5 nM, respectively.
Regarding `CCS(=O)(=O)c1ccc(CNC(=O)c2cccc(NCc3nnc(-c4ccncn4)n3C)c2)cc1` [drawing 618], the IC50 is > 30 µM in assay [2], 21 nM on GRK2 [4] (setting [6]) and 6.2 nM on GRK2 [3] (setting [7]).
As for `Cc1ccn2c(CNC(=O)c3cccc(NCc4nnc(-c5ccncn5)n4C)c3)cnc2c1` [drawing 620], the IC50 in assay [2] amounted to 5.6 µM; at GRK2 [4] (setting [6]), 20 nM; on GRK2 [3] (setting [7]), 3 nM.
Turning to `C[C@@H](NC(=O)c1cccc(NCc2nnc(-c3ccncn3)n2C)c1)c1ncccc1Cl` [drawing 845], the IC50 in assay [2] was found to be 27.1 µM; on GRK2 [4] (TR-FRET GRK2 enzyme assay), 15 nM; on GRK2 [3] (setting [8]), 12 nM.
On to `Cn1c(CNc2cccc(C(=O)N[C@@H]3COCc4ccccc43)c2)nnc1-c1ccncn1` [drawing 851], for which the IC50 in assay [2] was > 0.8 µM; on GRK2 [4] (TR-FRET GRK2 enzyme assay) it was 11.9 nM; at GRK2 [3] (setting [8]) it was 20.2 nM.
